One compound from ChEMBL document CHEMBL4270535, “Facile synthesis of vanillin-based novel bischalcones identifies one that induces apoptosis and displays synergy with Artemisinin in killing chloroquine resistant Plasmodium falciparum” (Eur J Med Chem, 2018) can be followed below.

The source made the active and inactive calls. The rule behind the calls is not given here.

Data set [1] relates to Plasmodium falciparum. Put plainly: Antiplasmodial activity against synchronized ring stage of chloroquine-resistant Plasmodium falciparum Dd2 infected in human erythrocytes after 48 hrs by SYBR Green 1 dye based fluorescence assay. It is filed as functional, organism-based. To be noted: Dd2, 48 h.
Data set [2] in a line: Selectivity index, ratio of IC50 for mouse L929 cells to IC50 for synchronized ring stage of chloroquine-sensitive Plasmodium falciparum 3D7 infected in human erythrocytes. It is filed as toxicity, cell-based. To be noted: read-out: Ratio IC50.
The test system of data set [3] is Plasmodium falciparum. The experiment in a line: Synergistic antiplasmodial activity against synchronized ring stage of chloroquine-sensitive Plasmodium falciparum 3D7 infected in human erythrocytes assessed as FIC index in presence of artemisinin. Type of data set: functional.
Data set [4] relates to Plasmodium falciparum. Put plainly: Antiplasmodial activity against synchronized ring stage of chloroquine-resistant Plasmodium falciparum INDO infected in human erythrocytes assessed as parasite growth inhibition at 8 uM treated for 6 to 48 hrs by Giemsa staining based microscopic analysis. It is filed as functional, organism-based.
In data set [5] the test system is Plasmodium falciparum. Put plainly: Synergistic antiplasmodial activity against synchronized ring stage of chloroquine-resistant Plasmodium falciparum INDO infected in human erythrocytes assessed as parasite growth inhibition at FIC90 treated for 6 to 48 hrs followed by compound wash out measured after 48 to 90 hrs in presence of chloroquine by Giemsa staining based microscopic analysis. It is filed as functional, organism-based.

The subject of data set [6] is Plasmodium falciparum. Put plainly: Synergistic antiplasmodial activity against synchronized trophozoite stage of chloroquine-resistant Plasmodium falciparum INDO infected in human erythrocytes assessed as parasite growth inhibition at FIC90 treated for 18 to 24 hrs followed by compound wash out measured after 48 to 54 hrs in presence of chloroquine by Giemsa staining based microscopic analysis. Type of data set: functional, organism-based.

The test system of data set [7] is Plasmodium falciparum. Put plainly: Synergistic plasmodicidal activity against synchronized trophozoite stage of chloroquine-resistant Plasmodium falciparum INDO infected in human erythrocytes assessed as parasite killing at FIC90 treated for 18 to 24 hrs followed by compound wash out measured after 48 to 54 hrs followed by compound wash out measured after 48 to 54 hrs in presence of chloroquine by Giemsa staining based microscopic analysis. Type of data set: functional, organism-based.

The test system of data set [8] is Plasmodium falciparum. The experiment in a line: Synergistic plasmodicidal activity against synchronized ring stage of chloroquine-resistant Plasmodium falciparum INDO infected in human erythrocytes assessed as parasite killing at FIC90 treated for 6 to 48 hrs followed by compound wash out measured after 48 to 90 hrs followed by compound wash out measured after 48 to 90 hrs in presence of artemisinin by Giemsa staining based microscopic analysis. It is filed as functional, organism-based.

Data set [9] deals with Plasmodium falciparum. The experiment in a line: Synergistic plasmodicidal activity against synchronized trophozoite stage of chloroquine-resistant Plasmodium falciparum INDO infected in human erythrocytes assessed as parasite killing at FIC90 treated for 18 to 24 hrs followed by compound wash out measured after 48 to 54 hrs followed by compound wash out measured after 48 to 54 hrs in presence of artemisinin by Giemsa staining based microscopic analysis. It is filed as functional, organism-based.

Data set [10] concerns Plasmodium falciparum. The experiment in a line: Synergistic antiplasmodial activity against synchronized trophozoite stage of chloroquine-resistant Plasmodium falciparum INDO infected in human erythrocytes assessed as parasite growth inhibition at 2 times FIC100 treated for 18 to 24 hrs followed by compound wash out measured after 48 to 54 hrs in presence of chloroquine by Giemsa staining based microscopic analysis. It is filed as functional, organism-based.

Data set [11] has as its system Plasmodium falciparum. The experiment in a line: Synergistic antiplasmodial activity against synchronized schizont stage of chloroquine-resistant Plasmodium falciparum INDO infected in human erythrocytes assessed as parasite growth inhibition at 2 times FIC100 treated for 12 hrs followed by compound wash out measured after 48 hrs in presence of chloroquine by Giemsa staining based microscopic analysis. It is filed as functional, organism-based.

The subject of data set [12] is Plasmodium falciparum. The experiment in a line: Induction of apoptosis in synchronized trophozoite stage of chloroquine-resistant Plasmodium falciparum INDO infected in human erythrocytes assessed as translocation of phosphatidylserine from inner to outer leaflet of plasma membrane at 8 uM after 12 hrs by Annexin-V/Alexa fluor-488 staining based fluorescence microscopic analysis. It is filed as functional, organism-based.

Data set [13] concerns Plasmodium falciparum. The experiment in a line: Induction of apoptosis in synchronized trophozoite stage of chloroquine-resistant Plasmodium falciparum INDO infected in human erythrocytes assessed as activation of caspase-like protease at 8 uM after 12 hrs by Caspase FITC-VAD-FMK substrate based fluorescence microscopic analysis. It is filed as functional, organism-based.

In data set [14] the test system is Plasmodium falciparum. The experiment in a line: Induction of apoptosis in synchronized trophozoite stage of chloroquine-resistant Plasmodium falciparum INDO infected in human erythrocytes assessed as activation of caspase-like protease at 8 uM after 12 hrs by Caspase FITC-VAD-FMK substrate based flow cytometry. It is filed as functional, organism-based. (In flow cytometry, cells or beads pass a laser one at a time.)

As usually defined, the IC50 is the concentration that gives 50% inhibition. `C=CCc1cc(/C=C/C(=O)c2cccc(C(=O)/C=C/c3cc(CC=C)c(OC)c(OC)c3)c2)cc(OC)c1OC` came in with an IC50 with Plasmodium falciparum [1] of 3.5 µM. Further, in data set [2], the selectivity ratio worked out at 8.8. The “fractional inhibitory concentration index (FICI)” value in the data set with Plasmodium falciparum [3] is reported as 1.33 - 1.58. In addition, the outcome in the data set on Plasmodium falciparum [4], in the data set with Plasmodium falciparum [5], in the data set on Plasmodium falciparum [6], in the data set with Plasmodium falciparum [10], in the data set with Plasmodium falciparum [11] and with Plasmodium falciparum [12] was Active. The result with Plasmodium falciparum [13] and in the data set with Plasmodium falciparum [14] was Active. The result with Plasmodium falciparum [7], with Plasmodium falciparum [8] and in the data set with Plasmodium falciparum [9] was inactive.
